# In patent US12018026B1, “Pyrido[4,3-e][1,2,3]triazolo[1,5-a]pyrimidine as CK2 inhibitors” (KING FAISAL UNIVERSITY, priority 2024, dated 2024):
# Assays:
# [1] = system: HCT116 (colon); test: In vitro cytotoxic activity MTT assay, HCT116; type: cell-based; settings: Homo sapiens, HCT-116; cells exposed for 96 hours; read-out: Cytotoxicity activity IC50, HCT116 (colon)
# Method: (§1) Compounds 1-16 were screened for their in vitro cytotoxic activity utilizing a 3-(4,5-dimethyl-thiazol-2-yl)-2,5-diphenyltetrazolium bromide (MTT) assay against selected cancer human cell lines consisting of PC3 (prostate), HCT116 (colon), A375 (melanoma), H1299 (lung), MIAPaCa-2 (pancreas), HL60 (leukemia), MCF7 (breast), MDA-MB-231 (breast) (T. Mosmann, J. Immunol. Meth., 1983, 65, 55-63). The cells were cultured at 37° C. in RMPI1640 medium supplemented with 10% fetal bovine serum, 50 IU/mL penicillin, and 50 μg/mL streptomycin in a 5% CO2 incubator. All cells were sub-cultured 3 times/week by trypsinisation. Viable cells were seeded and allowed to adhere for 12 hours before a test drug was added in 96-well plates at an initial density of 1.0×10^5 cells/mL. Tumor cell lines were separately exposed to various concentrations of the tested compounds followed by incubation at a temperature of 37° C. during 96 hours inside a medium of fresh RMPI 1640. Cells were subsequently incubated at 37° C. using MTT at 0.5 mg/mL during 4 hours. After removal of supernatant, formazan crystals were dissolved in isopropanol and the optical density was measured at 570 nm. CX-4945 was used as a positive control.
# [2] = biological target: T1, recombinant human CK2 (RRββ-holoenzyme) (Homo sapiens, UniProt P68400); test: CK2 Kinase Assay (33P-ATP, substrate peptide RRRDDDSDDD); type: biochemical; settings: final ATP concentration 15 μM, 10 min at 30° C.; read-out: protein kinase CK2 IC50
# T1 construct: purchased Millipore
# T1 sequence (P68400 whole entry): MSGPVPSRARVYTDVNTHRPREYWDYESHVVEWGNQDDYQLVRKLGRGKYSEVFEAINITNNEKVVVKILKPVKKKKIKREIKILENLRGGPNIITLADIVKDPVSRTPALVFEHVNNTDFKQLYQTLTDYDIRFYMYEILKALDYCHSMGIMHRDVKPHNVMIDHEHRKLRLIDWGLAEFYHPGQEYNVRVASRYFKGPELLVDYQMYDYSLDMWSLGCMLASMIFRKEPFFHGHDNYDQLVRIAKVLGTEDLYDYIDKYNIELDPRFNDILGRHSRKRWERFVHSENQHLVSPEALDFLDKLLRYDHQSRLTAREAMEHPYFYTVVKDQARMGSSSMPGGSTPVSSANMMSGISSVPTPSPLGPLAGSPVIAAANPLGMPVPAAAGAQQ
# T1 sequence (P67870 whole entry partner): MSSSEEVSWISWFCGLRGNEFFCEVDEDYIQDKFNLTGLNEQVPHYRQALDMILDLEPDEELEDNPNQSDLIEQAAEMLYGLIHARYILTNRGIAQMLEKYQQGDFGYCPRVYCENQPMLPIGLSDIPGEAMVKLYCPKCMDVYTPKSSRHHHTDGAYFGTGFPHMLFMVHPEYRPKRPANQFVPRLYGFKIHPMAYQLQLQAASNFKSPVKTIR
# Method: CK2 Kinase Assay was conducted using the protocol as described in Pierre F. et al; J. Med. Chem. 2011, 54, 635-654. The tested compounds in aqueous solution were added at a volume of 10 μL to a reaction mixture comprising 10 μL of assay dilution buffer (ADB; 20 mM MOPS, pH 7.2, 25 mM β-glycerol phosphate, 5 mM EGTA, 1 mM sodium orthovanadate, and 1 mM dithiothreitol), 10 μL of substrate peptide (RRRDDDSDDD, dissolved in ADB at a concentration of 1 mM), 10 μL of recombinant human CK2 (RRββ-holoenzyme, 25 ng dissolved in ADB; Millipore). Reactions were initiated by the addition of 10 μL of ATP solution (90% 75 mMMgCl2, 75 μM ATP (final ATP concentration: 15 μM) dissolved in ADB; 10% [γ-33P] ATP (stock 1mCi/100 L; 3000 Ci/mmol (Perkin-Elmer) and maintained for 10 min at 30° C. The reactions were quenched with 100 μL of 0.75% phosphoric acid and then transferred to and filtered through a phosphor cellulose filter plate (Millipore). After washing each well five times with 0.75% phosphoric acid, the plate was dried under vacuum for 5 min and, following the addition of 15 μL of scintillation fluid to each well, the residual radioactivity was measured using a Wallac luminescence counter. The IC50 values were derived from eight concentrations of test inhibitors.
# [3] = system: MCF7 (breast); test: In vitro cytotoxic activity MTT assay, MCF7; type: cell-based; settings: Homo sapiens, cells exposed for 96 hours, read-out: Cytotoxicity activity IC50, MCF7 (breast)
# Method: as §1
# [4] = system: PC3 (prostate); test: In vitro cytotoxic activity MTT assay, PC3; type: cell-based; settings: Homo sapiens; cells exposed for 96 hours; read-out: Cytotoxicity activity IC50, PC3 (prostate)
# Method: as §1
# [5] = system: MIAPaCa-2 (pancreas); test: In vitro cytotoxic activity MTT assay, MIAPaCa-2; type: cell-based; settings: Homo sapiens, MIA PaCa-2; cells exposed for 96 hours; read-out: Cytotoxicity activity IC50, MIAPaCa-2 (pancreas)
# Method: as §1
# [6] = system: HL60 (leukemia); test: In vitro cytotoxic activity MTT assay, HL60; type: cell-based; settings: Homo sapiens, HL-60; cells exposed for 96 hours; read-out: Cytotoxicity activity IC50, HL60 (leukemia)
# Method: as §1
# [7] = system: A375 (melanoma); test: In vitro cytotoxic activity MTT assay, A375; type: cell-based; settings: Homo sapiens, A-375; cells exposed for 96 hours; read-out: Cytotoxicity activity IC50, A375 (melanoma)
# Method: as §1
# [8] = system: H1299 (lung); test: In vitro cytotoxic activity MTT assay, H1299; type: cell-based; settings: Homo sapiens, NCI-H1299; cells exposed for 96 hours; read-out: Cytotoxicity activity IC50, H1299 (lung)
# Method: as §1
# [9] = system: MDA-MB-231 (breast); test: In vitro cytotoxic activity MTT assay, MDA-MB-231; type: cell-based; settings: Homo sapiens, cells exposed for 96 hours, read-out: Cytotoxicity activity IC50, MDA-MB-231 (breast)
# Method: as §1
structure (smiles),measurement,setting,value
"O=C(O)c1nnn2c1nc(Nc1cccc(Cl)c1)c1ccncc12 [Compound 1, 5-((3-chlorophenyl)amino)pyrido[4,3-e][1,2,3]triazolo[1,5-a]pyrimidine-3-carboxylic acid]",IC50,[1],2.5 µM
same,IC50,[2],0.024 µM
same,IC50,[3],4.7 µM
same,IC50,[4],1.4 µM
same,IC50,[5],1.1 µM
same,IC50,[6],5.4 µM
same,IC50,[7],5.7 µM
same,IC50,[8],3.3 µM
same,IC50,[9],4.2 µM
